Reference: patent publication US12472193B2, “Methods and compositions for treating and preventing respiratory related diseases and conditions with xylitol-headgroup lipid analogs” (National Jewish Health, priority 2017, dated 2025)
“Also recorded” adds a separate entry of the source.

Assays:
TLR 4 [1] = molecular target: T1, TLR 4 (Mus musculus, UniProt Q9JHF9+Q9QUK6); assay: LPS-induced TNF-α secretion by RAW264.7 cells (TLR 4 antagonism); type: cell-based; conditions: for antagonism of TLR 4 activation (TNFα secretion): 10 ng/mL LPS, 50 μg/mL lipid; for antagonism of TLR 4 activation (TNFα secretion) / IC50 values (inhibition of TNFα release) / IC50: 4 hours; for IC50 values (inhibition of TNFα release) / IC50: RAW264.7, 10 ng/mL LPS, lipid 100 to 0.008 μg/mL; for IC50: read-out: IC50 values (inhibition of TNFα release) (converted); for potency as TLR 4 antagonist compared to POPG: from dose response curves
T1 construct: endogenous in cells; host or cells: RAW264.7 (ATCC)
T1 sequence (Q9QUK6 26-835): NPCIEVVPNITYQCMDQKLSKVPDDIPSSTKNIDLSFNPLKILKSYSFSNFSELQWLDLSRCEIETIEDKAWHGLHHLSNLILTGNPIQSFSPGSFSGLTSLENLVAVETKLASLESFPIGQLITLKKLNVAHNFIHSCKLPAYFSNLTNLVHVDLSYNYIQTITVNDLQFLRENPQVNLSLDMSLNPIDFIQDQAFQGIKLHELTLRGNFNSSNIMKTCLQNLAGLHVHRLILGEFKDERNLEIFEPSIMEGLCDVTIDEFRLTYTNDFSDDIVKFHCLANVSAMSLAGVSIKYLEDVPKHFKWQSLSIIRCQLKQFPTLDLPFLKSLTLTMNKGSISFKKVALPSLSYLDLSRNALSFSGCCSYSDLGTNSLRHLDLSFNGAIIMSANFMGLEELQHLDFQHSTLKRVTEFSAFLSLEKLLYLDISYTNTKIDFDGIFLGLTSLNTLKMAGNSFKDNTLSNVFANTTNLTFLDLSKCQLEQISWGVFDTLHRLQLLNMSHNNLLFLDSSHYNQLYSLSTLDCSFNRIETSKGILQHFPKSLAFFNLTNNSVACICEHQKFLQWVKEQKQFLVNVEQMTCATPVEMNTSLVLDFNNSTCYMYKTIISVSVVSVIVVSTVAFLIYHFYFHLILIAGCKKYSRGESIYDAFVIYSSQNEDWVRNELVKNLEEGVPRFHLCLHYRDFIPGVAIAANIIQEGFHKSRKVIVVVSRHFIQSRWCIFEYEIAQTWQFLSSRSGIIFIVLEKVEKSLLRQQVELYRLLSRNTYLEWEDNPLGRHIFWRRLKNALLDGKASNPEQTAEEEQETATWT
T1 sequence (Q9JHF9 19-160): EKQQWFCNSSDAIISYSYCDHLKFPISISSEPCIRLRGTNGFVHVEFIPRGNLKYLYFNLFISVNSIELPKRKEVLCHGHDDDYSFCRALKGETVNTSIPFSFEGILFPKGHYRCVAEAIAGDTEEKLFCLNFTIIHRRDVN
Description: The mouse macrophage cell line, RAW264.7, was obtained from ATCC and maintained in DMEM, supplemented with 10% bovine growth serum and 1× penicillin streptomycin. Cells were maintained at 37° C. with 5% carbon dioxide: 95% air atmosphere within the incubator. Experiments were completed in a 96-well plate where cells were seated at a density of 1×10^5 cells per well, 24 prior to stimulation with TLR agonists and antagonists. Lipids were dried under a stream of nitrogen, hydrated with phosphate-buffered saline (PBS) at 37° C. for one hour, followed by water bath sonication to create liposomes. Each condition for cell stimulation and antagonism was prepared in DMEM in a separate tube and consisted of: control, TLR agonist, TLR agonist+lipid, and lipid alone. 100 μL aliquots of medium+agonists+antagonists were added to each well and incubated at 37° C. for 4 hours. Subsequently, the media were collected, diluted and an enzyme-linked immunosorbent assay (ELISA) was performed to quantify TNFα release by cells.
The additional experiments disclosed herein, tested the initial activity of multiple POPG analogs. […] However, it was unknown how the combination of a xylitol head group along with varying hydrophobic chains affects this activity and mechanism of suppression. Varying the hydrophobic chains provides an approach for optimization of a PX lipid for maximum efficacy and uncovers important structure/function relationships. To test antagonist activity of PX lipids for preventing the activation of TLR 4, LPS was added to RAW264.7 cells at 10 ng/mL in the absence or presence of 50 μg/mL of lipid and incubated for 4 hours. After incubation, media were collected and secretion of the proinflammatory cytokine, TNFα, was quantified by ELISA as a downstream consequence of TLR 4 activation. Eight xylitol lipid analogs suppressed the activation of TLR 4 in the presence of LPS stimulus. […] Although inhibition of TLR 4 by DSPX was statistically different from LPS alone, its antagonism was marginal. DSPX is also a saturated lipid and the hydrophobic chains are 18 carbons in length. […] In these studies none of the lipids alone elicited significant amounts of proinflammatory cytokine release.
For quantitative comparisons between POPG analogs and POPG, concentration-dependent inhibition studies were performed and IC50 values were determined. RAW264.7 cells were stimulated with 10 ng/mL of LPS in combination with concentrations of lipid from 100 μg/mL to 0.008 μg/mL. Cells were stimulated for 4 hours followed by collection of media and quantification of TNFα released into the medium.

RSV = assay: Binding of RSV to solid phase phospholipid; set-up: species or system human RSV A2 strain; conditions: 0.625 nmol lipid, 37° C., 1 hour
Description: Lipids were dried under a stream of nitrogen and resuspended in 100% ethanol, and 0.625 nmol was added in a 40 μL volume to each well of a half-area, 96-well plate. The solvent was evaporated under warm air for 90 minutes. 120 μL of blocking solution (150 mM NaCl, 20 mM Tris pH 7, 5 mM CaCl2) containing 3% BSA w/v) was added to each well and incubated for 1 hour at room temperature. Wells were washed 3 times with (150 mM NaCl, 20 mM Tris pH 7, 5 mM CaCl2)) followed by the addition of 40 μL of serial dilutions of RSV (2.5×10^7, 1.25×10^7, 0.625×10^7, 0.3125×10^7, 0.15625×10^7 pfu/mL) in blocking solution to each well and the plate was incubated at 37° C. for 1 hour. The wells were washed 3 times and 40 μL of α-RSV:HRP antibody diluted 1:500 was added and incubated at 37° C. for 1 hour. After washing out the primary antibody, the peroxidase activity was detected with the substrate o-phenylenediamine and the absorbance read at 490 nm to detect degree of binding.
A quantitative plaque assay takes a week to develop without accounting for maintenance of cells. In order to determine the mechanism of antiviral action of PX analogs and explore a faster assay that could easily be mass-produced, lipids were assessed for their ability to bind RSV. A solid phase of 0.625 nmol of lipid was dried onto a 96-well plate. Binding of fluid-phase RSV to the lipids was assessed at viral concentrations of 8×105 to 2.5×10^7 pfu/mL, at 37° C. for 1 hour. Viral binding was detected with a primary anti-RSV antibody conjugated to HRP. The peroxidase reaction was developed with o-phenylenediamine and absorbance measurement at 490 nm.

TLR 4 [2] = molecular target: T1, TLR 4; assay: LPS-induced TNF-α secretion by RAW264.7 cells (TLR 4 antagonism); type: cell-based; conditions: reduction in cytokine secretion vs activating TLR ligand alone

CCCCCCCC/C=C\CCCCCCCC(=O)O[C@H](COC(=O)CCCCCCCCCCCCCCC)COP(=O)(O)OCC(O)CO (stereo partly shown) [POPG, palmitoyl-oleoyl-phosphatidylglycerol, reference compound]
antagonism of TLR 4 activation (TNFα secretion) (TLR 4 [1]): inhibits activation of TLR4
IC50 values (inhibition of TNFα release) (TLR 4 [1]): 3.33 µg/mL
inhibitory concentration reducing TNF-α production by 50% (IC50), as shown in FIG. 3 (TLR 4 [1]; RAW264.7, 10 ng/ml LPS): ~2 µg/mL

CCCCCCCCCCCCCC(=O)OC[C@H](COP(=O)(O)OCC(O)C(O)C(O)CO)OC(=O)CCCCCCCCCCCCC (mixture of isomers) [DMPX, sn-1-myristoyl, sn-2-myristoyl sn-3 glycerol phosphoxylitol]
antagonism of TLR 4 activation (TNFα secretion) (TLR 4 [1]): strong antagonistic activity
IC50 (TLR 4 [1]): 33 µM
binding of solid phase lipid to RSV (RSV): bound strongly
TLR2 antagonist activity (TLR 4 [2]): + (cutoff being greater than a 50% reduction in cytokine secretion compared to activating TLR ligand alone)

CCCCCCC=CCCCCCCCC(=O)OCC(COP(=O)(O)OCC(O)C(O)C(O)CO)OC(=O)CCCCCCCC=CCCCCCC (mixture of isomers) [16:1 DPPX, sn-1-palmitoleoyl, sn-2-palmitoleoyl sn-3 glycerol phosphoxylitol]
IC50 values (inhibition of TNFα release) (TLR 4 [1]): 1 µg/mL
binding of solid phase lipid to RSV (RSV): only bind weakly
TLR2 antagonist activity (TLR 4 [2]): + (cutoff being greater than a 50% reduction in cytokine secretion compared to activating TLR ligand alone)

CCCCCCCC/C=C\CCCCCCCC(=O)O[C@H](COC(=O)CCCCCCCCCCCCCCC)COP(=O)([O-])OCC[N+](C)(C)C [POPC, 1-palmitoyl-2-oleoyl-sn-glycero-3-phosphocholine, reference compound]
antagonism of TLR 4 activation (TNFα secretion) (TLR 4 [1]): does not significantly alter the activation of TLR4
IC50 values (inhibition of TNFα release) (TLR 4 [1]): could not be determined

CCCCCCCCC=CCCCCCCCCOCC(COP(=O)(O)OCC(O)C(O)C(O)CO)OCCCCCCCCC=CCCCCCCCC (mixture of isomers) [18:1 DEPX, sn-1-O-octadecenyl, sn-2-O-octadecenyl sn-3 glycerol phosphoxylitol]
antagonism of TLR 4 activation (TNFα secretion) (TLR 4 [1]): effective antagonists; also recorded: inhibit
IC50 values (inhibition of TNFα release) (TLR 4 [1]): 0.33 µg/mL
potency as TLR 4 antagonist compared to POPG (TLR 4 [1]): more potent antagonists of TLR 4 activation than POPG
binding of solid phase lipid to RSV (RSV): affinity comparable to that of POPG
TLR2 antagonist activity (TLR 4 [2]): + (cutoff being greater than a 50% reduction in cytokine secretion compared to activating TLR ligand alone)

CCCCCCCCCCCCCCCCCC(=O)OCC(COP(=O)(O)OCC(O)C(O)C(O)CO)OC(=O)CCCCCCCCCCCCCCCCC (stereo not shown) [DSPX, sn-1-stearoyl, sn-2-stearoyl sn-3 glycerol phosphoxylitol]
antagonism of TLR 4 activation (TNFα secretion) (TLR 4 [1]): marginal
IC50 values (inhibition of TNFα release) (TLR 4 [1]): could not be determined
binding of solid phase lipid to RSV (RSV): bound strongly

CCCCCCCCCCCCCCCC(=O)OCC(COP(=O)(O)OCC(O)C(O)C(O)CO)OC(=O)CCCCCCCCCCCCCCC (stereo not shown) [DPPX, sn-1-palmitoyl, sn-2-palmitoyl sn-3 glycerol phosphoxylitol]
antagonism of TLR 4 activation (TNFα secretion) (TLR 4 [1]): ineffective as an antagonist
IC50 values (inhibition of TNFα release) (TLR 4 [1]): could not be determined
binding of solid phase lipid to RSV (RSV): bound strongly

CCCCCCCCCCCCCCOC[C@H](COP(=O)(O)OCC(O)C(O)C(O)CO)OCCCCCCCCCCCCCC (mixture of isomers) [14:0 DEPX, sn-1-O-myristyl, sn-2-O-myristyl sn-3 glycerol phosphoxylitol]
antagonism of TLR 4 activation (TNFα secretion) (TLR 4 [1]): effective antagonists
IC50 (TLR 4 [1]): 4.08 µM
binding of solid phase lipid to RSV (RSV): bound to the RSV virus strongly
TLR2 antagonist activity (TLR 4 [2]): + (cutoff being greater than a 50% reduction in cytokine secretion compared to activating TLR ligand alone)

CCCCCC=CCC=CCCCCCCCC(=O)OCC(COP(=O)(O)OCC(O)C(O)C(O)CO)OC(=O)CCCCCCCC=CCC=CCCCCC (mixture of isomers) [18:2 DLPX, sn-1-linoleoyl, sn-2-linoleoyl sn-3 glycerol phosphoxylitol]
IC50 values (inhibition of TNFα release) (TLR 4 [1]): 0.28 µg/mL
potency as TLR 4 antagonist compared to POPG (TLR 4 [1]): more potent antagonists of TLR 4 activation than POPG
binding of solid phase lipid to RSV (RSV): only bind weakly
TLR2 antagonist activity (TLR 4 [2]): + (cutoff being greater than a 50% reduction in cytokine secretion compared to activating TLR ligand alone)

CCCCCCCC/C=C\CCCCCCCC(=O)O[C@H](COC(=O)CCCCCCCCCCCCCCC)COP(=O)(O)OCC(O)C(O)C(O)CO (stereo partly shown) [POPX, sn-1-palmitoyl, sn-2-oleoyly sn-3 glycerol phosphoxylitol]
IC50 values (inhibition of TNFα release) (TLR 4 [1]): 0.52 µg/mL
potency as TLR 4 antagonist compared to POPG (TLR 4 [1]): more potent antagonists of TLR 4 activation than POPG
binding of solid phase lipid to RSV (RSV): affinity comparable to that of POPG
TLR2 antagonist activity (TLR 4 [2]): + (cutoff being greater than a 50% reduction in cytokine secretion compared to activating TLR ligand alone)

CCCCCCCCC=CCCCCCCCC(=O)OCC(COP(=O)(O)OCC(O)C(O)C(O)CO)OC(=O)CCCCCCCC=CCCCCCCCC (mixture of isomers) [DOPX, sn-1-oleoyl, sn-2-oleoyl sn-3 glycerol phosphoxylitol]
antagonism of TLR 4 activation (TNFα secretion) (TLR 4 [1]): inhibit
IC50 values (inhibition of TNFα release) (TLR 4 [1]): 0.36 µg/mL
potency as TLR 4 antagonist compared to POPG (TLR 4 [1]): more potent antagonists of TLR 4 activation than POPG
binding of solid phase lipid to RSV (RSV): only bind weakly
TLR2 antagonist activity (TLR 4 [2]): + (cutoff being greater than a 50% reduction in cytokine secretion compared to activating TLR ligand alone)
